The values below come from patent publication EP4524159A1, “ANTIBODY AND USE THEREOF” (Sichuan Huiyu Pharmaceutical Co., Ltd., priority 2022, dated 2023).

Usually IC50 stands for the concentration that gives 50% inhibition.

Each structure is given as a SMILES string. Square brackets hold non-standard residues; d marks the D form. Peptide text beside a SMILES is read from it. * marks the point of attachment. Dolaproine = CO[C@@H]([C@@H]1CCCN1)[C@@H](C)C(=O)O; Dil = CC[C@H](C)[C@H](NC)[C@@H](CC(=O)O)OC; X1 = C[C@@H](N*)[C@@H](O)c1ccccc1; NMeV = CN[C@H](C(=O)O)C(C)C

Holding throughout (format): cell-based
Experiment [1] relates to PC3. The experiment can be described thus: In vitro killing by chimeric antibody-vc-MMAE conjugate (CellTiter-Glo, 120 h). To be noted: PC3 (120 h). The protocol:
The specific steps were: Colorectal cancer cells HCT116, breast cancer cells MDA-MB-231, prostate cancer cells PC3, MCF7 cells were respectively counted, adjusted to 3000 cells/well, and plated onto 96-well plates overnight; Conjugates were added at a final concentration of 8 nM to 0.000512 nM (a 5-fold dilution across 7 concentration points), totaling 200 µL, […], half of the medium (100 µL) was discarded, and 100 µL of CellTiter-Glo Luminescent Cell Viability assay reagent (Promega, cat # G7570) was added to detect signal values on a BMG microplate reader. The inhibition activity of antibody on tumor cell growth was calculated by graphpad fitting based on the signal value and antibody concentration, and the results are shown in FIG. 5 and Table 15. Table 15 IC50 value of anti-CDCP1 chimeric antibody -vcMMAE conjugate on tumor cells

Experiment [2] concerns MDA-MB-231. The experiment is described as above. To be noted: MDA-MB-231 (120 h). The protocol:
(§1) The specific steps were: Colorectal cancer cells HCT116, breast cancer cells MDA-MB-231, prostate cancer cells PC3, MCF7 cells were respectively counted, adjusted to 3000 cells/well, and plated onto 96-well plates overnight; Conjugates were added at a final concentration of 8 nM to 0.000512 nM (a 5-fold dilution across 7 concentration points), totaling 200 µL, cultured at 37 °C in a CO2 incubator for 120 h, half of the medium (100 µL) was discarded, and 100 µL of CellTiter-Glo Luminescent Cell Viability assay reagent (Promega, cat # G7570) was added to detect signal values on a BMG microplate reader. The inhibition activity of antibody on tumor cell growth was calculated by graphpad fitting based on the signal value and antibody concentration, and the results are shown in FIG. 5 and Table 15. Table 15 IC50 value of anti-CDCP1 chimeric antibody -vcMMAE conjugate on tumor cells

In experiment [3] the test system is MCF7. The description is as above. The note with it: MCF7 (120 h), cells that do not express CDCP1. The protocol:
as §1

Experiment [4] concerns HCT116. The experiment is described as above. As for the experimental part: as §1
Experiment [5] has as its system HCT116. As to the kind of experiment: In vitro killing by humanized antibody-vc-MMAE conjugate (CellTiter-Glo, 120 h). As for the experimental part: (§2) The colorectal cancer cells HCT116 and breast cancer cells HCC1806 were counted separately, adjusted to 3000 cells/well and plated in 96-well plates overnight. Conjugates were added at a final concentration of 200 nM to 0.000512 nM (a 5-fold dilution across 9 concentration points), totaling 200 µL, cultured at 37°C in a CO2 incubator for 120 h, half of the medium (100 µL) was discarded, and 100 µL of CellTiter-Glo Luminescent Cell Viability assay reagent (Promega, cat # G7570) was added to detect signal values on a BMG microplate reader. The inhibition activity of antibody on tumor cell growth was calculated by graphpad fitting based on the signal value and antibody concentration, and the results are shown in FIGS. 6a and 6b and Tables 19 and 20. Table 19 DAR value of anti-CDCP1 humanized antibody-vc-MMAE conjugate and its IC50 value for HCC1806

Experiment [6] has as its system HCC1806. The description is as above. The protocol: as §2

`CC[C@H](C)[C@@H]([C@@H](CC(=O)N1CCC[C@H]1[C@H](OC)[C@@H](C)C(=O)N[C@H](C)[C@@H](O)c1ccccc1)OC)N(C)C(=O)[C@@H](NC(=O)[C@@H](NC)C(C)C)C(C)C` [MMAE] (H-[NMeV]V[Dil][Dolaproine]-X1): the IC50 came out at 1.01 pM in experiment [1]; 0.168 nM in experiment [2]; 0.0777 nM in experiment [3]; 0.108 nM in experiment [4]; 0.283 nM in experiment [5]; 0.053 nM in experiment [6].
